Experimental data: US11512054B2, “Pesticidal compounds” (BASF SE, priority 2017, dated 2022)

Assays:
Format in all cases: in vivo
[1] = tested on: Diamond Back Moth (Plutella xylostella); assay: Action on diamond back moth, cabbage leaf dip; settings: foliar, 3rd instar larvae, 72 hours after treatment, read-out: mortality in comparison with untreated controls
Method: The active compound is dissolved at the desired concentration in a mixture of 1:1 (v/v) distilled water:acetone. Surfactant (Kinetic® HV) is added at a rate of 0.01% (v/v). The test solution is prepared at the day of use.
Leaves of cabbage were dipped in test solution and air-dried. Treated leaves were placed in petri dishes lined with moist filter paper and inoculated with ten 3rd instar larvae. Mortality was recorded 72 hours after treatment. Feeding damages were also recorded using a scale of 0-100%.

[2] = tested on: Orchid Thrips (Dichromothrips corbetti); assay: Action on orchid thrips, floral-immersion technique; settings: adult thrips, 72 hours after treatment, read-out: mortality in comparison with untreated controls
Method: Dichromothrips corbetti adults used for bioassay were obtained from a colony maintained continuously under laboratory conditions. For testing purposes, the test compound is diluted in a 1:1 mixture of acetone:water (vol:vol), plus Kinetic® HV at a rate of 0.01% v/v.
Thrips potency of each compound was evaluated by using a floral-immersion technique. All petals of individual, intact orchid flowers were dipped into treatment solution and allowed to dry in Petri dishes. Treated petals were placed into individual re-sealable plastic along with about 20 adult thrips. All test arenas were held under continuous light and a temperature of about 28° C. for duration of the assay. After 3 days, the numbers of live thrips were counted on each petal. The percent mortality was recorded 72 hours after treatment.

[3] = tested on: tobacco budworm (Heliothis virescens); assay: Action on tobacco budworm, eggs on insect diet in 96-well microtiter plates; settings: 120 h, egg and larval mortality after 5 days, read-out: mortality in comparison with untreated controls
Method: For evaluating control of tobacco budworm (Heliothis virescens) the test unit consisted of 96-well-microtiter plates containing an insect diet and 15-25 H. virescens eggs.
The compounds were formulated using a solution containing 75% v/v water and 25% v/v DMSO. Different concentrations of formulated compounds were sprayed onto the insect diet at 10 μl, using a custom built micro atomizer, at two replications.
After application, microtiter plates were incubated at about 28+1° C. and about 80+5% relative humidity for 5 days. Egg and larval mortality was then visually assessed.

[4] = tested on: boll weevil (Anthonomus grandis); assay: Action on boll weevil, eggs on insect diet in 96-well microtiter plates; settings: 120 h, egg and larval mortality after 5 days, read-out: mortality in comparison with untreated controls
Method: For evaluating control of boll weevil (Anthonomus grandis) the test unit consisted of 96-well-microtiter plates containing an insect diet and 5-10 A. grandis eggs.
The compounds were formulated using a solution containing 75% (v/v) water and 25% (v/v) DMSO. Different concentrations of formulated compounds were sprayed onto the insect diet at 5 μl, using a custom built micro atomizer, at two replications.
After application, microtiter plates were incubated at about 25+1° C. and about 75+5% relative humidity for 5 days. Egg and larval mortality was then visually assessed.

[5] = tested on: Silverleaf Whitefly (Bemisia argentifoli) (Adults); assay: Action on silverleaf whitefly adults, sprayed cotton plants; settings: Bemisia argentifolii, 72 h, 3 days after treatment, read-out: mortality in comparison with untreated controls
Method: (§1) The active compounds were formulated by a Tecan liquid handler in 100% cyclohexanone as a 10,000 ppm solution supplied in tubes. The 10,000 ppm solution was serially diluted in 100% cyclohexanone to make interim solutions. These served as stock solutions for which final dilutions were made by the Tecan in 50% acetone:50% water (v/v) into 5 or 10 ml glass vials. A nonionic surfactant (Kinetic®) was included in the solution at a volume of 0.01% (v/v). The vials were then inserted into an automated electrostatic sprayer equipped with an atomizing nozzle for application to plants/insects.
Cotton plants at the cotyledon stage (one plant per pot) were sprayed by an automated electrostatic plant sprayer equipped with an atomizing spray nozzle. The plants were dried in the sprayer fume hood and then removed from the sprayer. Each pot was placed into a plastic cup and about 10 to 12 whitefly adults (approximately 3-5 days old) were introduced. The insects were collected using an aspirator and a nontoxic Tygon® tubing connected to a barrier pipette tip. The tip, containing the collected insects, was then gently inserted into the soil containing the treated plant, allowing insects to crawl out of the tip to reach the foliage for feeding. Cups were covered with a reusable screened lid. Test plants were maintained in a growth room at about 25° C. and about 20-40% relative humidity for 3 days, avoiding direct exposure to fluorescent light (24 hour photoperiod) to prevent trapping of heat inside the cup. Mortality was assessed 3 days after treatment, compared to untreated control plants.

[6] = tested on: yellow fever mosquito (Aedes aegypti); assay: whole plant or invertebrate; settings: 48 h, larval mortality visually assessed after 2 days, read-out: mortality in comparison with untreated controls
Method: For evaluating control of yellow fever mosquito (Aedes aegypti) the test unit consisted of 96-well-microtiter plates containing 200 μl of tap water per well and 5-15 freshly hatched A. aegypti larvae.
The active compounds or mixtures were formulated using a solution containing 75% (v/v) water and 25% (v/v) DMSO. Different concentrations of formulated compounds or mixtures were sprayed onto the insect diet at 2.5 μl, using a custom built micro atomizer, at two replications. For experimental mixtures in these tests identical volumes of both mixing partners at the desired concentrations respectively, were mixed together.
After application, microtiter plates were incubated at 28±1° C., 80±5% RH for 2 days. Larval mortality was then visually assessed.

[7] = tested on: Southern Armyworm (Spodoptera eridania), 2nd Instar Larvae; assay: Action on southern armyworm, sprayed lima bean plants; settings: 96 h, 2nd instar larvae on lima bean, 4 days after treatment, read-out: mortality in comparison with untreated controls
Method: as §1, with “into 10” for “into 5”, “or 20” for “or 10”
Lima bean plants (variety Sieva) were grown 2 plants to a pot and selected for treatment at the 1st true leaf stage. Test solutions were sprayed onto the foliage by an automated electrostatic plant sprayer equipped with an atomizing spray nozzle. The plants were dried in the sprayer fume hood and then removed from the sprayer. Each pot was placed into perforated plastic bags with a zip closure. About 10 to 11 armyworm larvae were placed into the bag and the bags zipped closed. Test plants were maintained in a growth room at about 25° C. and about 20-40% relative humidity for 4 days, avoiding direct exposure to fluorescent light (24 hour photoperiod) to prevent trapping of heat inside the bags. Mortality and reduced feeding were assessed 4 days after treatment, compared to untreated control plants.

For `CO[C@@H]1[C@@H](OC)[C@H](C)O[C@@H](OC(=O)Nc2ccc3c(C(=S)N(C)c4ccc(OC(F)(F)F)cc4)nn(C)c3c2)[C@@H]1OC` [Example C-4, [(2S,3R,4R,5S,6S)-3,4,5-trimethoxy-6-methyl-tetrahydropyran-2-yl]N-[1-methyl-3-[methyl-[4-(trifluoromethoxy)phenyl]carbamothioyl]indazol-6-yl]carbamate], the mortality at 500 ppm [1] was ≥ 75%, the mortality at 500 ppm [2] was ≥ 75% and the mortality at 800 ppm [3] was ≥ 75%. The mortality at 800 ppm [4] was ≥ 75%, the mortality at 300 ppm [5] was ≥ 75% and the mortality at 800 ppm [6] was ≥ 50%.
In the case of `CC(C)c1ccccc1NC(=S)N/N=C/c1ccc2c(/C(N)=N/c3ccc(OC(F)(F)F)cc3)nsc2c1` [Example C-20, 1-(2-isopropylphenyl)-3-[(E)-[3-[(Z)—N′-[4-(trifluoromethoxy)phenyl]carbamimidoyl]-1,2-benzothiazol-6-yl]methyleneamino]thiourea], the mortality at 500 ppm [1] is reported as ≥ 75%, the mortality at 500 ppm [2] is reported as ≥ 75% and the mortality at 800 ppm [3] is reported as ≥ 75%. For the same compound, the mortality at 800 ppm [4] was ≥ 75% and the mortality at 800 ppm [6] was ≥ 50%.
With `CC(C)c1ccccc1N1C(=O)CS/C1=N\N=C\c1ccc2c(C(=N)Nc3ccc(OC(F)(F)F)cc3)nn(C)c2n1` [Example C-27, 6-[(E)-[(Z)-[3-(2-isopropylphenyl)-4-oxo-thiazolidin-2-ylidene]hydrazono]methyl]-1-methyl-N-[4-(trifluoromethoxy)phenyl]pyrazolo[3,4-b]pyridine-3-carboxamidine] the mortality at 500 ppm [1] was ≥ 75%, the mortality at 500 ppm [2] was ≥ 75% and the mortality at 800 ppm [3] was ≥ 75%. For the same compound, the mortality at 800 ppm [4] was ≥ 75%, the mortality at 800 ppm [6] was ≥ 50% and the mortality at 300 ppm [7] was ≥ 75%.
In the case of `C/N=C(/c1nn(C)c2cc(/C=N/NC(=S)Nc3ccccc3C(C)C)ccc12)N(C)c1ccc(OC(F)(F)F)cc1` [Example C-3, 1-[(E)-[3-[(Z)—N,N′-dimethyl-N-[4-(trifluoromethoxy)phenyl]carbamimidoyl]-1-methyl-indazol-6-yl]methyleneamino]-3-(2-isopropylphenyl)thiourea], the mortality at 500 ppm [1] is reported as ≥ 75%, the mortality at 500 ppm [2] is reported as ≥ 75% and the mortality at 800 ppm [3] is reported as ≥ 75%. The mortality at 800 ppm [4] was ≥ 75% and the mortality at 800 ppm [6] was ≥ 50%.
With `CC(C)c1ccccc1N1CCCS/C1=N\N=C\c1ccc2c(C(=N)Nc3ccc(OC(F)(F)F)cc3)nn(C)c2c1` [Example C-37, 6-[(E)-[(Z)-[3-(2-isopropylphenyl)-1,3-thiazinan-2-ylidene]hydrazono]methyl]-1-methyl-N-[4-(trifluoromethoxy)phenyl]indazole-3-carboxamidine] the mortality at 500 ppm [1] was ≥ 75%, the mortality at 500 ppm [2] was ≥ 75% and the mortality at 800 ppm [3] was ≥ 75%. The mortality at 800 ppm [4] was ≥ 75% and the mortality at 800 ppm [6] was ≥ 50%.
For `CC(C)c1ccccc1NC(=S)N/N=C/c1ccc2c(/C=N/c3ccc(OC(F)(F)F)cc3)nn(C)c2c1` [Example C-24, 1-(2-isopropylphenyl)-3-[(E)-[1-methyl-3-[(E)-[4-(trifluoromethoxy)phenyl]iminomethyl]indazol-6-yl]methyleneamino]thiourea], the mortality at 500 ppm [1] was ≥ 75%, the mortality at 800 ppm [3] was ≥ 75% and the mortality at 800 ppm [6] was ≥ 50%.
`CON=C(Nc1ccc(OC(F)(F)F)cc1)c1nn(C)c2cc(/C=N/N=C3\SC(=O)CN3c3ccccc3C(C)C)ccc12` [Example C-6, 6-[(E)-[(Z)-[3-(2-isopropylphenyl)-5-oxo-thiazolidin-2-ylidene]hydrazono]methyl]-N′-methoxy-1-methyl-N-[4-(trifluoromethoxy)phenyl]indazole-3-carboxamidine] was tested, and the mortality at 500 ppm [1] was ≥ 75%, the mortality at 500 ppm [2] was ≥ 75% and the mortality at 800 ppm [3] was ≥ 75%. The mortality at 800 ppm [4] was ≥ 75%, the mortality at 800 ppm [6] was ≥ 50% and the mortality at 300 ppm [7] was ≥ 75%.
In the case of `CC(C)c1ccccc1N1CCS/C1=N\N=C\c1ccc2c(C(=N)Nc3ccc(OC(F)(F)F)cc3)nn(C)c2c1` [Example C-36, 6-[(E)-[(Z)-[3-(2-isopropylphenyl)thiazolidin-2-ylidene]hydrazono]methyl]-1-methyl-N-[4-(trifluoromethoxy)phenyl]indazole-3-carboxamidine], the mortality at 500 ppm [1] is reported as ≥ 75%, the mortality at 500 ppm [2] is reported as ≥ 75% and the mortality at 800 ppm [3] is reported as ≥ 75%. The mortality at 800 ppm [4] was ≥ 75% and the mortality at 800 ppm [6] was ≥ 50%.
For `CC(C)c1ccccc1N1C(=O)CS/C1=N\N=C\c1ccc2c(/C=N/c3ccc(OC(F)(F)F)cc3)nn(C)c2c1` [Example C-25, (2Z)-3-(2-isopropylphenyl)-2-[(E)-[1-methyl-3-[(E)-[4-(trifluoromethoxy)phenyl]iminomethyl]indazol-6-yl]methylenehydrazono]thiazolidin-4-one], the mortality at 500 ppm [1] was ≥ 75% and the mortality at 800 ppm [3] was ≥ 75%.
`CC(C)c1ccccc1NC(=S)N/N=C/c1ccc2c(C(=N)Nc3ccc(OC(F)(F)F)cc3)nn(C)c2n1` [Example C-26, 1-(2-isopropylphenyl)-3-[(E)-[1-methyl-3-[N-[4-(trifluoromethoxy)phenyl]carbamimidoyl]pyrazolo[3,4-b]pyridin-6-yl]methyleneamino]thiourea] was tested, and the mortality at 500 ppm [1] was ≥ 75%, the mortality at 500 ppm [2] was ≥ 75% and the mortality at 800 ppm [3] was ≥ 75%. The mortality at 800 ppm [4] was ≥ 75%, the mortality at 800 ppm [6] was ≥ 50% and the mortality at 300 ppm [7] was ≥ 75%.
With `CC(C)c1ccccc1N1C(=O)CS/C1=N\N=C\c1ccc2c(C(N)=Nc3ccc(OC(F)(F)F)cc3)nsc2c1` [Example C-21, 6-[(E)-[(Z)-[3-(2-isopropylphenyl)-4-oxo-thiazolidin-2-ylidene]hydrazono]methyl]-N′[4-(trifluoromethoxy)phenyl]-1,2-benzothiazole-3-carboxamidine] the mortality at 500 ppm [1] was ≥ 75%, the mortality at 500 ppm [2] was ≥ 75% and the mortality at 800 ppm [3] was ≥ 75%. The mortality at 800 ppm [4] was ≥ 75%, the mortality at 800 ppm [6] was ≥ 50% and the mortality at 300 ppm [7] was ≥ 75%.
